{
  "source": "paper PMC3914206",
  "format_in_all_cases": "binding",
  "key": {"panel of 442 kinases [1]": {"molecular_target": "T1, panel of 442 kinases (Homo sapiens, UniProt P36897)", "T1 construct": "purchased KINOMEscan", "T1 sequence (P36897 34-503)": "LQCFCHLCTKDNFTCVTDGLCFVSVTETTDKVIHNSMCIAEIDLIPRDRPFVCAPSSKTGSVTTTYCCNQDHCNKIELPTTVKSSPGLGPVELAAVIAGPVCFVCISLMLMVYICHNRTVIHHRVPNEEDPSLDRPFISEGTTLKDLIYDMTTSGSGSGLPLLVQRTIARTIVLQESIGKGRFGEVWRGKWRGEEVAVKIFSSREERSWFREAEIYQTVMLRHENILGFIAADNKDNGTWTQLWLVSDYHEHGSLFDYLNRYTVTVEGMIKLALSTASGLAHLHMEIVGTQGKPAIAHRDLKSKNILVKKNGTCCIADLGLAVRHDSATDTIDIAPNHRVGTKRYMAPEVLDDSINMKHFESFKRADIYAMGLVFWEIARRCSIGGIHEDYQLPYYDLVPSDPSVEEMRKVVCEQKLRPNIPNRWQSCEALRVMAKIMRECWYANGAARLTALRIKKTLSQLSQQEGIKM", "details": "kinase TGFBR1; compound concentration 10 µM", "source_text": "(§1) We assessed the selectivity of members of this scaffold using the KINOMEscan methodology across a near comprehensive panel of 442 kinases [[18,27]]."}, "panel of 442 kinases [2]": {"molecular_target": "T2, panel of 442 kinases (Homo sapiens, UniProt Q16659)", "T2 construct": "purchased KINOMEscan", "T2 sequence (Q16659 whole entry)": "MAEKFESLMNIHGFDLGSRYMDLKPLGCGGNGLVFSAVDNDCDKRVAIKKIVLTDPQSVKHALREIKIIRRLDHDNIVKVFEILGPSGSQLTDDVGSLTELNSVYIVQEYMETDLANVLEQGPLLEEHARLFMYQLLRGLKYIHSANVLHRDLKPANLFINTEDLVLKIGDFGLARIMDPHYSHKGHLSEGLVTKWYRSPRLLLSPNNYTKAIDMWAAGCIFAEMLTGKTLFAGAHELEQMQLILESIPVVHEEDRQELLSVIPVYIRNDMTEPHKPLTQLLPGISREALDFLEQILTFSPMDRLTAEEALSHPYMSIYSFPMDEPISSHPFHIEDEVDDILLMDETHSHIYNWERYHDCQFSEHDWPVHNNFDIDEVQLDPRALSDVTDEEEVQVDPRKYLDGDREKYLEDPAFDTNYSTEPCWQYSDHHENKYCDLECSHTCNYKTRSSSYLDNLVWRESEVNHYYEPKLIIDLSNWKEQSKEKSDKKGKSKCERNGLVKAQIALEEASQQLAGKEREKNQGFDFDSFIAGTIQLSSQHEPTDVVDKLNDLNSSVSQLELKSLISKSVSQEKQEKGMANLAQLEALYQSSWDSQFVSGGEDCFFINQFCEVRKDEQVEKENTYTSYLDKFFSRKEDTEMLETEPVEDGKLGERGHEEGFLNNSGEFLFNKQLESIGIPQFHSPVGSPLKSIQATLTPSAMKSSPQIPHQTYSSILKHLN", "details": "Compound Concentration 10 µM", "source_text": "as §1"}, "panel of 442 kinases [3]": {"molecular_target": "T3, panel of 442 kinases (Homo sapiens, UniProt Q13233)", "T3 construct": "purchased KINOMEscan", "T3 sequence (Q13233 whole entry)": "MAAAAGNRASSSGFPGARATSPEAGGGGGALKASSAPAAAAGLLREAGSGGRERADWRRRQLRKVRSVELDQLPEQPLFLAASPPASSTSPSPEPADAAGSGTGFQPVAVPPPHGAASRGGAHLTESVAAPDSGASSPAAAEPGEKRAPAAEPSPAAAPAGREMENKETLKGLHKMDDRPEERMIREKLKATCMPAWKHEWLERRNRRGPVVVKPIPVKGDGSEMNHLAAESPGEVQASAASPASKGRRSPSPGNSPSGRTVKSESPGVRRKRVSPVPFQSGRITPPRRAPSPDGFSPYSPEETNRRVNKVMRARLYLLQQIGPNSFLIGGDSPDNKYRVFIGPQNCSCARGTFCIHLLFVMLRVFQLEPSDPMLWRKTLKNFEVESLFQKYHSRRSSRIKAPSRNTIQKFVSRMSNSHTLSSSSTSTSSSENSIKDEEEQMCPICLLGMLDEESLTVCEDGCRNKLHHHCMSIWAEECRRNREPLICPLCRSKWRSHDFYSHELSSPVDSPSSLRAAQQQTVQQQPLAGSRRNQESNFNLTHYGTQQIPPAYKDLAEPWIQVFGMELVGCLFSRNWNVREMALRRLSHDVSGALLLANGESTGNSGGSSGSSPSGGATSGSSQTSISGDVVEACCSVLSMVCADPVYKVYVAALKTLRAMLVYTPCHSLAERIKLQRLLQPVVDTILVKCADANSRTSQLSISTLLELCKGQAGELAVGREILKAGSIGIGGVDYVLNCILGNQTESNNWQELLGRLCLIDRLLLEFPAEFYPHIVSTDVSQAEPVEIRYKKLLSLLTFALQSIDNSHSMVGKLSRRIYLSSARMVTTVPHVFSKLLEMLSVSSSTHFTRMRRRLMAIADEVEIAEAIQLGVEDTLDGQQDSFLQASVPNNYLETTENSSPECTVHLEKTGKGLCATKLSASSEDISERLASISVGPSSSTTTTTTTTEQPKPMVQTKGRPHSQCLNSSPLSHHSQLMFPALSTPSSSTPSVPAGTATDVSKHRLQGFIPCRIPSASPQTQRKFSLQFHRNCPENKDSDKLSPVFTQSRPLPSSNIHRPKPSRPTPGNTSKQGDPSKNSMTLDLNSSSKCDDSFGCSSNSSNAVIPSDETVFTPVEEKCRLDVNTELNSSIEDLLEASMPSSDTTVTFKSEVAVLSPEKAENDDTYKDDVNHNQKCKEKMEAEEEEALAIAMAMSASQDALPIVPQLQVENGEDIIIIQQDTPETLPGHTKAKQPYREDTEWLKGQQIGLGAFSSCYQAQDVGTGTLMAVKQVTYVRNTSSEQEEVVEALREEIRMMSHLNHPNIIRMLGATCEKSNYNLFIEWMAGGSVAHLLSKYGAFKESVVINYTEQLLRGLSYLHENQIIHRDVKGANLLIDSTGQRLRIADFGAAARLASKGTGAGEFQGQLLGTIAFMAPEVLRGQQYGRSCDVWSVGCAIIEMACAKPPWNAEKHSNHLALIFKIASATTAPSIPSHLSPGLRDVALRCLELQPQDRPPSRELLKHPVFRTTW", "details": "Compound Concentration 10 µM", "source_text": "as §1"}},
  "data": [
    {"smiles": "COc1cc(C(=O)N2CCC(N3CCN(C)CC3)CC2)ccc1Nc1ncc2c(n1)N(C)c1ccccc1C(=O)N2C", "note": "[15 (LRRK2-IN-1)]", "values": [
      {"measurement": "% Ctrl, TGFBR1", "setting": "panel of 442 kinases [1]", "result": 100, "unit": "% Ctrl"},
      {"measurement": "KINOMEscan: ERK3", "setting": "panel of 442 kinases [2]", "result": 100},
      {"measurement": "KINOMEscan: MAP3K1", "setting": "panel of 442 kinases [3]", "result": 95}
    ]},
    {"smiles": "COc1cc(C(=O)N2CCC(N3CCN(C)CC3)CC2)ccc1Nc1ncc2c(n1)N1CCc3cccc(c31)C(=O)N2C", "note": "[Compound 24]", "values": [
      {"measurement": "% Ctrl, TGFBR1", "setting": "panel of 442 kinases [1]", "result": 100, "unit": "% Ctrl"}
    ]},
    {"smiles": "COc1cc(C(=O)N2CCC(N3CCN(C)CC3)CC2)ccc1Nc1ncc2c(n1)N(C1CCCC1)c1ccccc1C(=O)N2C", "note": "[Compound 25, 11-cyclopentyl-2-((2-methoxy-4-(4-(4-methylpiperazin-1-yl)piperidine-1-carbonyl)phenyl)amino)-5-methyl-5H-benzo[e]pyrimido[5,4-b][1,4]diazepin-6(11H)-one]", "values": [
      {"measurement": "% Ctrl, TGFBR1", "setting": "panel of 442 kinases [1]", "result": 98, "unit": "% Ctrl"},
      {"measurement": "KINOMEscan: ERK3", "setting": "panel of 442 kinases [2]", "result": 100},
      {"measurement": "KINOMEscan: MAP3K1", "setting": "panel of 442 kinases [3]", "result": 100}
    ]},
    {"smiles": "CCOc1cc(C(=O)N2CCC(N3CCN(C)CC3)CC2)ccc1Nc1ncc2c(n1)N(C1CCCC1)c1ccccc1C(=O)N2C", "note": "[Compound 26]", "values": [
      {"measurement": "% Ctrl, TGFBR1", "setting": "panel of 442 kinases [1]", "result": 100, "unit": "% Ctrl"},
      {"measurement": "KINOMEscan: ERK3", "setting": "panel of 442 kinases [2]", "result": 100},
      {"measurement": "KINOMEscan: MAP3K1", "setting": "panel of 442 kinases [3]", "result": 93}
    ]}
  ]
}
